Target: T1, Interleukin-1 receptor-associated kinase 4 (Homo sapiens, UniProt Q9NWZ3)
T1 sequence (Q9NWZ3 whole entry): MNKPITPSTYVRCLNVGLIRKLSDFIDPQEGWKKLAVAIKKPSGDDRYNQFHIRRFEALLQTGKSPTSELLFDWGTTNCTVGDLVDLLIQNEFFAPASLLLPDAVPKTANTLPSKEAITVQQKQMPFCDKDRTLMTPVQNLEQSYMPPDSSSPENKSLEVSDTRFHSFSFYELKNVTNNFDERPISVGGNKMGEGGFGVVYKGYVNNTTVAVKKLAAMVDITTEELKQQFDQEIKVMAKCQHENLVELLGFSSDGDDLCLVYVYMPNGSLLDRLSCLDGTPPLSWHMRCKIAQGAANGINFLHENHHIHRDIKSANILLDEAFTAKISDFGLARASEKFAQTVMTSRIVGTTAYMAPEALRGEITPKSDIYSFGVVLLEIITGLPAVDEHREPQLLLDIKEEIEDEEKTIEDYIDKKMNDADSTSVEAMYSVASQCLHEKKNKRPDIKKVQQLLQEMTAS
Assay: IRAK4 Kinase Inhibition Assay
Method: In this assay, Cisbio HTRF KinEASE-STK SI kit (62S 1 PEB) was used, in which assay/detection buffer, STK Substrate 1-biotin, Streptavidin-XL665, STK Antibody-Cryptate were contained. After adding compound/DMSO to a 384-well plate (PerkinElmer 6008280) using Echo 665, 5 μL of 2-fold reaction concentration of IRAK4 kinase protein (final concentration: 10 nM) dissolved with assay buffer [1 volume of 5× kinase buffer+20 mM magnesium chloride (Sigma) solution+1 mM DTT (Alfa Aesar) solution+4 volumes deionized water] was added, followed by sealing the shallow well plate, shaking and then centrifuging at 1000 rpm for 1 min, and incubating at room temperature for 5 min; then 5 μL of 2-fold reaction concentration of a 1:1 mixture of STK Substrate 1-biotin (final concentration: 1 μM) and ATP (Sigma A1852) (final concentration: 200 μM) formulated with assay buffer was added, followed by sealing the shallow well plate, shaking and then centrifuging at 1000 rpm for 1 min, and incubating at 37° C. for 2 h, and then 10 μL of a 1:1 mixture of Streptavidin-XL665 (final concentration: 62.5 nM) and STK-antibody-cryptate dissolved with detection buffer was added, followed by sealing the shallow well plate, shaking and then centrifuging at 1000 rpm for 1 min, and incubating at room temperature for 1 h, and thereafter reading the value at the wavelength of 620 nm/665 nm using a microplate reader.

- IC50: < 100 nM
SMILES: OCC1CCC(n2cc(-n3cc(-c4cnn5ccc(C6CCOC6)nc45)nn3)c(C(F)F)n2)CC1 (stereo unspecified) [US20260028337, Compound 98A]

Reference: BindingDB's records for patent US20260028337 (Shenzhen Zhongge Biological Technology, 2026)
